Tests used:
Beta-secretase 1 [1] = target: T1, Beta-secretase 1 (Homo sapiens, UniProt P56817)
Cathepsin D = Cathepsin D (Homo sapiens, UniProt P07339)
Beta-secretase 1 [2] = target: T1, Beta-secretase 1; remark: listed apart in the source
Rattus norvegicus [3] = species on record: Rattus norvegicus; conditions: dose 10 mg/kg; route oral
Rattus norvegicus [4] = species on record: Rattus norvegicus; conditions: dose 10 mg/kg; route oral; remark: listed apart in the source
Rattus norvegicus [5] = species on record: Rattus norvegicus; assay: animal or person; conditions: Sprague-Dawley, Cerebrospinal fluid, po, 4 h, read-out: INH

Cathepsin D, sequence (P07339 65-162 limits assumed): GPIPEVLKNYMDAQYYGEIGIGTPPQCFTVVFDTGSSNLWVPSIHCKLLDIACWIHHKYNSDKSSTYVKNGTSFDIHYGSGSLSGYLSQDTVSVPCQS
Cathepsin D, sequence (P07339 169-412 limits assumed): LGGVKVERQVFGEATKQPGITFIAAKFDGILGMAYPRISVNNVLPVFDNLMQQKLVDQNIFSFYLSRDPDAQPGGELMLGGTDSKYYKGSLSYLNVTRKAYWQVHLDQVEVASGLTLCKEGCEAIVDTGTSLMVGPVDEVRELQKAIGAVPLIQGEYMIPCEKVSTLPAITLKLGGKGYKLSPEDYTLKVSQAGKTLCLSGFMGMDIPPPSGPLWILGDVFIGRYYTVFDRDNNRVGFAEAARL
T1 sequence (P56817 whole entry): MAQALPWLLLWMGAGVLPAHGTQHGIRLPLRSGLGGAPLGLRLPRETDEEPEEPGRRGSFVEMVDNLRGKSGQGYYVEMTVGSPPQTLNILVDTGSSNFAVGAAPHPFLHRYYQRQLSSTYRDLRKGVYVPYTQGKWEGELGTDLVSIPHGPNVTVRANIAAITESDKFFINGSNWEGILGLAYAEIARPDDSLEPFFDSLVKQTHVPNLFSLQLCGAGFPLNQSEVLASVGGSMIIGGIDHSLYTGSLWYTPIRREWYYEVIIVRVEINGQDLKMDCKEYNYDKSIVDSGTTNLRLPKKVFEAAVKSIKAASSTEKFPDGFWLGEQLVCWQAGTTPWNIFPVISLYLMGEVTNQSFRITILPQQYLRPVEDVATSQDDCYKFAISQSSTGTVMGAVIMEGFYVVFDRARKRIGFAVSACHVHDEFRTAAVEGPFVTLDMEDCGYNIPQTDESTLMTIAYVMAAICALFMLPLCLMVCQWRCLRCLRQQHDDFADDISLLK

Row | SMILES | IC50 (Beta-secretase 1 [1]) [nM] | IC50 (Cathepsin D) [nM] | IC50 (Beta-secretase 1 [2]) [nM] | fEC50 (Rattus norvegicus [3]) [nM] | fEC50 (Rattus norvegicus [4]) [nM] | inhibition in vivo at 10 mg/kg (Rattus norvegicus [5]) [%]
1 | NC1=N[C@@]2(CO1)c1cc(-c3cccnc3F)ccc1Oc1cnc(C3=CCOCC3)cc12 | 0.7 | 640 | 4.2 | 27 | 60 | –
2 | CC1(C)C=C(c2cc3c(cn2)Oc2ccc(-c4cccnc4F)cc2[C@@]32COC(N)=N2)CCO1 | 0.9 | 710 | 7.4 | 34 | 57 | 76
3 | NC1=N[C@@]2(CO1)c1cc(-c3cccnc3F)ccc1Oc1cnc(C3=CCCOC3)cc12 | 0.5 | 1080 | 7.9 | 16 | 31 | –
4 | NC1=N[C@@]2(CO1)c1cc(-c3cccnc3F)ccc1Oc1cnc(C3CCOCC3)cc12 | 7.1 | 3390 | 49.5 | 339 | 659 | –
5 | NC1=N[C@@]2(CO1)c1cc(-c3cccnc3F)ccc1Oc1cnc(C3CCCOC3)cc12 (some centres undefined) | 11.3 | 5800 | 123 | – | – | –
6 | NC1=N[C@@]2(CO1)c1cc(-c3cccnc3F)ccc1Oc1cnc([C@@H]3CCCCO3)cc12 | – | 11600 | – | – | – | –
7 | NC1=N[C@@]2(CO1)c1cc(-c3cccnc3F)ccc1Oc1cnc([C@H]3CCCCO3)cc12 | – | 1040 | – | – | – | –
8 | NC1=N[C@@]2(CO1)c1cc(-c3cccnc3F)ccc1Oc1cnc(N3CCOCC3)cc12 | – | 600 | 20.5 | – | – | –
9 | CC1(C)CN(c2cc3c(cn2)Oc2ccc(-c4cccnc4F)cc2[C@@]32COC(N)=N2)CCO1 | 4 | 530 | 22 | – | – | –
10 | NC1=N[C@@]2(CO1)c1cc(-c3cccnc3F)ccc1Oc1cnc(N3CCC(F)(F)CC3)cc12 | – | 140 | 8.7 | – | 54 | –
11 | NC1=N[C@@]2(CO1)c1cc(-c3cccnc3F)ccc1Oc1cnc(N3CCC(F)(F)C3)cc12 | – | 440 | 4.1 | 32 | 38 | –
12 | NC1=N[C@@]2(CO1)c1cc(-c3cccnc3F)ccc1Oc1cnc(N3CC[C@H](F)C3)cc12 | – | 2220 | – | – | – | –
13 | NC1=N[C@@]2(CO1)c1cc(-c3cccnc3F)ccc1Oc1cnc(N3CC[C@@H](F)C3)cc12 | – | 680 | – | – | – | –
14 | NC1=N[C@@]2(CO1)c1cc(-c3cccnc3F)ccc1Oc1cnc(-c3ccccc3)cc12 | 1.4 | 650 | 25.3 | – | – | –
15 | NC1=N[C@@]2(CO1)c1cc(-c3cccnc3F)ccc1Oc1cnc(-c3ccccn3)cc12 | 3.8 | 4100 | 26.6 | – | – | –
16 | NC1=N[C@@]2(CO1)c1cc(-c3cccnc3F)ccc1Oc1cnc(-c3ccncc3)cc12 | 2.5 | 3190 | 16 | 365 | 745 | 56
17 | Cc1cc(-c2cc3c(cn2)Oc2ccc(-c4cccnc4F)cc2[C@@]32COC(N)=N2)ccn1 | 2.4 | 3870 | 15 | 30 | 62 | 60
18 | NC1=N[C@]2(CO1)c1cc(C3=CCOCC3)ccc1Oc1ccc(-c3cccnc3F)cc12 | – | – | 18.5 | – | – | –
